# US8785501B2 (Duquesne University of the Holy Spirit, priority 2009, dated 2014)
# System: mammary estrogen-regulated genes (lactoferrin and progesterone receptor)
# Assay: Expression of estrogen-regulated genes in mammary tissue of ovariectomized FVB/n mice
# Format: in vivo, mouse
# Details: FVB/n OVX mice, n=4, data not shown; versus control (vehicle) and melatonin alone
# Description: Previous studies with melatonin or tamoxifen alone were done in MMTV/neu mice. MMTV/neu mice spontaneously develop HER2/neu mammary cancer beginning at 5 months of […] and have a maximal incidence of >90% after 14 months of age. In this mouse model, tamoxifen and melatonin alone can influence mammary tumor development, growth and/or metastatic progression.
structure (smiles),measurement,value
CC/C(=C(\c1ccccc1)c1ccc(OCCN(C)C)cc1)c1ccccc1 [tamoxifen],progesterone receptor (PR) RNA levels in mammary tissue,significantly different than the control
